Measurements published in patent US7288547B2, “CDK-inhibitory 2-heteroaryl-pyrimidines, their production and use as pharmaceutical agents” (Schering AG, priority 2002, dated 2007).
Read-outs that look alike come from different tables or passages of the source.

How the values were obtained:
[1] = biological target: T1, CDK2/CycE (Homo sapiens, UniProt P24941); assay: CDK2/CycE Kinase Assay; assay type: biochemical
T1 construct: GST; purchased Proquinase Company, Freiburg; host or cells: baculovirus-infected insect cells (Sf9)
Procedure: Recombinant CDK2- and CycE-GST-fusion proteins, purified from baculovirus-infected insect cells (Sf9), were purchased by the Proquinase Company, Freiburg. Histone IIIS, which was used as a kinase substrate, was purchased by the Sigma Company.
The reaction was stopped by adding EDTA solution (250 mmol, pH 8.0, 14 μl/measuring point).
From each reaction batch, 10 μl was applied to P30 filter strips (Wallac Company), and non-incorporated ^33P-ATP was removed by subjecting the filter strips to three washing cycles for 10 minutes each in 0.5% phosphoric acid. After the filter strips were dried for one hour at 70° C., the filter strips were covered with scintillator strips (MeltiLex™ A, Wallac Company) and baked for one hour at 90° C. The amount of incorporated ^33P (substrate phosphorylation) was determined by scintillation measurement in a gamma-radiation measuring device (Wallac).

[2] = test system: MCF7; assay: Proliferation Assay (crystal violet); assay type: cell-based, human
Procedure: Cultivated human tumor cells (as indicated) were flattened out at a density of 5000 cells/measuring point in a 96-well multititer plate in 200 μl of the corresponding growth medium. After 24 hours, the cells of one plate (zero-point plate) were colored with crystal violet (see below), while the medium of the other plates was replaced by fresh culture medium (200 μl), to which the test substances were added in various concentrations (0 μm, as well as in the range of 0.01-30 μm; the final concentration of the solvent dimethyl sulfoxide was 0.5%). The cells were incubated for 4 days in the presence of test substances. The cell proliferation was determined by coloring the cells with crystal violet: the cells were fixed by adding 20 μl/measuring point of a 11% glutaric aldehyde solution for 15 minutes at room temperature. After three washing cycles of the fixed cells with water, the plates were dried at room temperature. The cells were colored by adding 100 μl/measuring point of a 0.1% crystal violet solution (pH was set at 3 by adding acetic acid). After three washing cycles of the colored cells with water, the plates were dried at room temperature. The dye was dissolved by adding 100 μl/measuring point of a 10% acetic acid solution. The extinction was determined by photometry at a wavelength of 595 nm. The change of cell growth, in percent, was calculated by standardization of the measured values to the extinction values of the zero-point plate (=0%) and the extinction of the untreated (0 μm) cells (=100%).

[3] = read-out: Inhibition IC50 CDK2/CycE
[4] = Homo sapiens, MCF7, 96 h, MCF7 cells, 4 days incubation, read-out: Proliferation IC50 MCF7
[5] = Homo sapiens, MCF7, MCF-7 cells, comparison with known reference compounds, read-out: MCF-7 IC50

SMILES	IC50 [1, 3] [µM]	IC50 [2, 4] [µM]	IC50 ([2]; MCF7 cells, 4 days incubation, read-out: Proliferation IC50 MCF7) [µM]	IC50 [2, 5] [µM]	IC50 ([1]; comparison with known reference compounds, read-out: CDK2/CycE IC50) [µM]
CC[C@H](CO)Nc1nc(Nc2ccc(S(N)(=O)=O)nc2)ncc1Br [Example 1.17]	0.007	0.5	–	–	–
CC(=O)C(C)Nc1nc(Nc2ccc(S(N)(=O)=O)nc2)ncc1Br (centres unmarked) [Example 1.14]	0.017	0.87	–	–	–
NS(=O)(=O)c1ccc(Nc2ncc(Br)c(SCCCCO)n2)cn1 [Example 1.21]	0.03	5.3	–	–	–
C[C@@H](O)[C@@H](C)Nc1nc(Nc2ccc(S(N)(=O)=O)nc2)ncc1Br [Example 1.13]	0.008	–	< 0.1	–	–
C[C@H](CO)Nc1nc(Nc2ccc(S(=O)(=O)NCCO)nc2)ncc1Br [Example 1.20]	0.013	1.9	–	–	–
O=C1Cc2c([nH]c3ccc([N+](=O)[O-])cc23)-c2ccccc2N1 [Alsterpaullone, reference compound]	–	–	–	1.2	–
C[C@H](O)[C@H](C)Nc1nc(Nc2ccc(S(N)(=O)=O)nc2)ncc1Br [Example 3.5]	< 0.01	0.88	–	–	–
Cn1cnc2c(NCc3ccccc3)nc(NCCO)nc21 [Olomoucine, reference compound]	–	–	–	30	–
C[C@H](CO)Nc1nc(Nc2ccc(S(N)(=O)=O)nc2)ncc1Br [Example 1.7]	0.006	–	–	–	–
CC(Nc1nc(Nc2ccc(S(N)(=O)=O)nc2)ncc1Br)C(C)NC1CC1 (centres unmarked) [Example 6.0, 5-[5-bromo-4-(2-cyclopropylamino-1-methyl-propylamino)-pyrimidin-2-ylamino]-pyridine-2-sulfonic acid amide]	0.025	2.3	–	–	–
C[C@@H](O)[C@@H](C)Nc1nc(Nc2ccc(S(N)(=O)=O)nc2)ncc1Br [Example 3.6]	< 0.01	0.1	–	–	–
CC(CO)Sc1nc(Nc2ccc(S(N)(=O)=O)nc2)ncc1Br (centres unmarked) [Example 4.1]	< 0.01	0.61	–	–	–
NS(=O)(=O)c1ccc(Nc2ncc(Br)c(NC3CCCCC3)n2)cn1 [Example 3.12]	0.02	0.79	–	–	–
O=C1Cc2c([nH]c3ccc(Br)cc23)-c2ccccc2N1 [Kenpaullone, reference compound]	–	–	–	6	–
CCC(CO)Sc1nc(Nc2ccc(S(N)(=O)=O)nc2)ncc1Br (centres unmarked) [Example 4.2]	< 0.01	0.26	–	–	–
CC(O)C(C)Nc1nc(Nc2ccc(S(N)(=O)=O)nc2)ncc1Br (centres unmarked) [Example 1.12]	0.022	0.24	–	–	–
CC[C@@H](CO)Nc1nc(Nc2ccc(S(N)(=O)=O)nc2)ncc1Br [Example 1.15]	0.013	2	–	–	–
CC(C)[C@H](CO)Nc1nc(Nc2ccc(S(N)(=O)=O)nc2)ncc1Br [Example 1.11]	0.04	1.2	–	–	–
CC(C)[C@H](CO)Nc1nc(Nc2cccc(Cl)c2)c2ncn(C(C)C)c2n1 [Purvalanol A, reference compound]	–	–	–	2	0.01
CC(C)[C@H](CO)Nc1nc(Nc2csc(S(N)(=O)=O)c2)ncc1Br [Example 1.9]	0.05	–	–	–	–
CC(Nc1nc(Nc2ccc(S(N)(=O)=O)nc2)ncc1Br)C(C)(C)O (centres unmarked) [Example 3.4]	0.058	0.84	–	–	–
CC(CO)N(C)c1nc(Nc2ccc(S(N)(=O)=O)nc2)ncc1Br (centres unmarked) [Example 3.3]	0.036	0.62	–	–	–
CC(O)C(C)Sc1nc(Nc2ccc(S(N)(=O)=O)nc2)ncc1Br (centres unmarked) [Example 4.3]	0.034	0.23	–	–	–
CC1CCCCC1Nc1nc(Nc2ccc(S(N)(=O)=O)nc2)ncc1Br (centres unmarked) [Example 3.13]	0.016	0.3	–	–	–
CCC(Sc1nc(Nc2ccc(S(N)(=O)=O)nc2)ncc1Br)C(C)O (centres unmarked) [Example 4.6, 5-[5-bromo-4-(1-ethyl-2-hydroxy-propylsulfanyl)-pyrimidin-2-ylamino]-pyridine-2-sulfonic acid amide]	0.074	0.63	–	–	–
CC(C)[C@H](CO)Nc1nc(Nc2cc(S(N)(=O)=O)sc2Cl)ncc1Br [Example 1.8]	0.087	3	–	–	–
NS(=O)(=O)c1ccc(Nc2ncc(Br)c(NCC3CC3)n2)cn1 [Example 1.19]	0.012	–	–	–	–
COC[C@H](C)Nc1nc(Nc2ccc(S(N)(=O)=O)nc2)ncc1Br [Example 1.16]	0.036	2	–	–	–
